Columns and labels:
[1] = test system: human pancreatic cancer cells containing pancreatic cancer stem cells; assay: Liver metastasis after transplantation to the pancreas of nude mice; type: in vivo; details: Am80 3 mg/kg/day for 1 month
Experimental: Pancreatic cancer cells (1×10^6 cells) containing pancreatic cancer stem cells were transplanted to the pancreas of nude mice, and the size of a tumor formed by metastasis to the liver was measured 1 month later. Am80 was administered at 3 mg/kg/day for 1 month.

[2] = test system: CD133-positive human pancreatic cancer stem cells; assay: Cell migration in Boyden chambers; type: cell-based; details: Am80 1 μM, CD133-positive fraction
Experimental: Pancreatic cancer cells containing pancreatic cancer stem cells were separated into CD133-positive cells and negative cells using magnetic antibody beads, and Am80 was added at 1 μM to the fractions, followed by culturing the cells in Boyden chambers and then observing the cells migrated into the back side of the membrane.

[3] = test system: human prostate cancer cell line LNCaP; assay: Tumor volume, LNCaP/nude mice; type: in vivo
Experimental: A tumor piece of a human prostate cancer cell line LNCaP containing cells positive for cancer stem cell markers was subcutaneously transplanted to the dorsal part of each of 6-week-old female BALB/cAJc1-nu nude mice (4 mice/group) using a trocar needle. At the time when the tumor volume reached 100 to 200 mm^3, the administration was started. Am80 was orally administered once a day at a dose of 1 mg/kg for 21 continuous days, and DXL was intravenously administered at a dose of 5 mg/kg from Day 1, 3 times at intervals of 4 days. In the combination group, the agents were administered at the same doses as, and by the same administration methods as, those in the cases of administration of each single agent. Measurement of the tumor diameter was carried out until the next day of the completion of the administration (Day 22). The longitudinal diameter and the transverse diameter of the tumor were measured using a caliper, and the tumor volume (mm^3) was determined according to the following formula: longitudinal diameter×transverse diameter^2/2. In the control group, physiological saline was intraperitoneally administered from Day 1, 3 times at intervals of 4 days.

[4] = test system: human pancreatic cancer cells MIA-Paca2; assay: Tumor volume, MIA-Paca2/nude mice; type: in vivo
Experimental: A tumor piece of human pancreatic cancer cells MIA-Paca2 containing cells positive for cancer stem cell markers was subcutaneously transplanted to the dorsal part of each of 6-week-old female BALB/cAJc1-nu nude mice (4 mice/group, 5 mice only for the control group) using a trocar needle. At the time when the tumor volume reached 100 to 200 mm^3, the administration was started. Am80 was orally administered once a day at a dose of 2 mg/kg for 21 continuous days, and DXL was intravenously administered at a dose of 5 mg/kg from Day 1, 3 times at intervals of 4 days. In the combination group, the agents were administered at the same doses as, and by the same administration methods as, those in the cases of administration of each single agent. Measurement of the tumor diameter was carried out until the next day of the completion of the administration (Day 22). Based on the measured values of the longitudinal diameter and the transverse diameter, the tumor volume (mm^3) was determined according to the following formula: longitudinal diameter×transverse diameter^2/2. In the control group, physiological saline was intraperitoneally administered from Day 1, 3 times at intervals of 4 days.

[5] = test system: human prostate cancer cell line LNCaP; assay: Growth inhibition of LNCaP in vitro; type: cell-based; details: Homo sapiens, 96 hours of exposure, RPMI1640 with 10% FBS
Experimental: A human prostate cancer cell line LNCaP, containing cells positive for cancer stem cell markers, was cultured in RPMI1640 medium supplemented with 10% FBS, and the growth inhibitory action by the combination of Am80 and 5-AZ was studied. […] Thus, in order to study the growth inhibitory action, Am80 was used within the concentration range of 0.125 μM to 1 μM with a common ratio of 2, and 5-AZ was used within the concentration range of 1.56 μM to 12.5 μM with a common ratio of 2. In cases of use of these agents in combination, the growth inhibitory action was studied using these concentrations.

[6] = test system: human pancreatic cancer cell line Panc-1 cell clusters; assay: Growth of human pancreatic cancer cell spheroids in suspension culture; type: cell-based
Experimental: Culturing of a human pancreatic cancer cell line in DMEM/F12 medium supplemented with B27, 20 ng/mL EGF, 20 ng/mL bFGF, and 4 μg/mL heparin using a low-adhesion dish allows formation of cell clusters, and the cells can be cultured in a suspended state. Under these conditions, the cells can be cultured such that they show increased levels of several cancer stem cell markers as well as markers reported for other cancers. First, the cell clusters containing the cells positive for the cancer stem cell markers were cultured in a medium supplemented with Am80 for 1 week, and the influences of Am80 on the growth of cell clusters and the expression levels of the cancer stem cell markers were analyzed.

[7] = suspension culture with Am80 for 1 week

In the case of `CC1(C)CCC(C)(C)c2cc(NC(=O)c3ccc(C(=O)O)cc3)ccc21` [Am80, tamibarotene], the “metastasis of the pancreatic cancer (size of tumor formed by metastasis to the liver)” value [1] is reported as “could be suppressed compared to the control”, the cell migration ability [2] is reported as “remarkable suppression” and the “tumor volume Day 1” value ([3]; Am80 1 mg/kg oral daily 21 days, DXL 5 mg/kg i.v. 3 times at intervals of 4 days, Day 1) is reported as 121.3 mm^3. For the same molecule, the “tumor volume Day 5” value ([3]; Am80 1 mg/kg oral daily, DXL 5 mg/kg i.v., Day 5) was 162.1 mm^3, the “tumor volume Day 9” value ([3]; Am80 1 mg/kg oral daily, DXL 5 mg/kg i.v., Day 9) was 205.8 mm^3 and the “tumor volume Day 13” value ([3]; Am80 1 mg/kg oral daily, DXL 5 mg/kg i.v., Day 13) was 282.8 mm^3. The “tumor volume Day 17” value ([3]; Am80 1 mg/kg oral daily, DXL 5 mg/kg i.v., Day 17) was 409.9 mm^3, the “tumor volume Day 22” value ([3]; Am80 1 mg/kg oral daily, DXL 5 mg/kg i.v., Day 22) was 436.3 mm^3 and the “tumor volume Day 1” value ([4]; Am80 2 mg/kg oral daily 21 days, DXL 5 mg/kg i.v. 3 times at intervals of 4 days, Day 1) was 151.3 mm^3. The “tumor volume Day 5” value ([4]; Am80 2 mg/kg oral daily, DXL 5 mg/kg i.v., Day 5) was 182.1 mm^3, the “tumor volume Day 9” value ([4]; Am80 2 mg/kg oral daily, DXL 5 mg/kg i.v., Day 9) was 255.5 mm^3 and the “tumor volume Day 13” value ([4]; Am80 2 mg/kg oral daily, DXL 5 mg/kg i.v., Day 13) was 348.8 mm^3. The “tumor volume Day 17” value ([4]; Am80 2 mg/kg oral daily, DXL 5 mg/kg i.v., Day 17) was 429.9 mm^3, the “tumor volume Day 22” value ([4]; Am80 2 mg/kg oral daily, DXL 5 mg/kg i.v., Day 22) was 466.4 mm^3 and the IC50 [5] was 2000 nM. The “sizes of the cell clusters” value ([6]; cultured for a total of 2 weeks in Am80-containing medium) was “further decreased”, the “growth of the cell clusters” value [6, 7] was “suppressed dependently on the concentration” and the number of cells [6, 7] was “decreased dependently on the concentration”.

From patent US20200061007A1, “CANCER STEM CELL PROLIFERATION INHIBITOR” (NATIONAL INSTITUTE OF ADVANCED INDUSTRIAL SCIENCE AND …, priority 2014, published 2020)
